In patent publication US10201559B2, “Compositions of selenoorganic compounds and methods of use thereof” (Alltech, Inc., priority 2014, dated 2019):
Entries after “also recorded” stand apart in the source; their conditions may differ.

Legend:
C2C12 cells = assay: Cell viability assay, C2C12; type: cell-based, mouse; conditions: 24 hr and 48 hr, same doses
Protocol: (§1) Cell viability in cultured cells was determined using Promega's CellTiter96® AQueous One Solution Cell Proliferation Assay kits, according to the Manufacturer's protocol. In brief, equal number of C2C12 (1×10^4 cells/well), AML-12 (1×10^4 cells/well) and IMR-32 (2×10^4 cells/well) were seeded on 96-well clear plates (VWR) and treated with vehicle or compounds for 24, […] and/or 72 hr. Then, cultured cells were incubated with AQueous One solution (100 ul/per well) at 37° C. for 1 hr, and the absorbance of OD490 nm in each sample was determined by the Bio-Tek microplate reader. Cell viability in culture cells were determined by the subtraction of OD490 nm in cultured cells with the OD490 nm in plain culture media (without seeding of cells). Eight samples per each treatment were examined for the above analysis. Data are presented as Mean±sem of eight samples.

pGSk3a = assay: Western blot, pGSk3a in AML-12 cells; type: cell-based, mouse; conditions: individual compounds, 6 or 24 hr
Protocol: (§2) IMR-32 and AML12 cells were seeded on 6-well plates, and then treated with vehicle and various compounds for 6 and 24 hr, as described above. After treatments, cells were rinsed with ice-cold PBS, and lysed in the ice-cold RIPA buffer containing complete proteinase and phosphotase inhibitors (Themo-Fisher Scientific, Waltham, Mass.) on ice for 30 min. Cell lysates were collected using a cell scraper and transfer pipette, and then centrifuged at 12000 g for 30 min at 4° C. to remove the DNA pellet and obtain the protein extract. Protein levels in the supernatant of these cell lysates were determined using the Pierce Micro-BCA protein assay kit (Themo Scientific-Piece Biotechnology, Rockford, Ill.) according to the manufacturer's protocol.
(§3) For Western blot analysis, five micrograms of total proteins from vehicle- and compound(s)-treated cells were subjected to SDS-PAGE gel separation, and then transferred to PVDF membranes, as described previously (Reddy, Liu et al. 2008 Science). Membranes were blocked in a phosphate-buffered saline (PBS) containing 5% (w/v) of bovine serum albumin (Sigma, St. Louis, Mo.), and incubated with specific primary antibodies followed by the incubation with HRP-conjugated anti-mouse or anti-rabbit secondary antibodies (1:5000 dilution, Cell Signaling Inc.). All primary antibodies except G6PC (Santa Cruz), Actb (Li-COR, Lincoln, Nebr.), Elf2bε and pElf2bε (Abcam, Cambridge, Mass.) were purchased from Cell Signaling Inc. Positive signals on the membrane blots were detected using the Amersham's enhanced chemiluminescence Western Blotting Prime Detection reagents (GE healthcare Lifescience, Pittsburgh, Pa.). Images of these luminescence signals on the membrane blots were captured using the LI-COR Odyssey Fc Image system (Lincoln, Nebr.). […] Protein band densities in the Western blots were determined using the Li-COR Image studio software or NIH ImageJ software, and then normalized by Actb level in each sample. […]

pElf2beS539 = assay: Western blot, pElf2beS539 in IMR-32 cells; type: cell-based, human; conditions: 150 ppb
Protocol: as §2, §3

Tau = assay: Western blot, ratio of phosphorylated Tau to total Tau in IMR-32 cells; type: cell-based, human; conditions: 150 ppb, 24 hr
Protocol: as §2
(§4) For Western blot analysis, five micrograms of total proteins from vehicle- and compound(s)-treated cells were subjected to SDS-PAGE gel separation, and then transferred to PVDF membranes, as described previously (Reddy, Liu et al. 2008 Science). […] All primary antibodies except G6PC (Santa Cruz), Actb (Li-COR, Lincoln, Nebr.), Elf2bε and pElf2bε (Abcam, Cambridge, Mass.) were purchased from Cell Signaling Inc. Positive signals on the membrane blots were detected using the Amersham's enhanced chemiluminescence Western Blotting Prime Detection reagents (GE healthcare Lifescience, Pittsburgh, Pa.). […]

AML-12 cells = assay: Quantitative analysis of mitochondrial potential in AML-12 cells; type: cell-based, mouse; conditions: 150 ppb (of each compound), 6 and 24 hr
Protocol: For AML-12 liver cells, cells were amplified in 10% FBS Dulbecco's modified Eagle's medium and Ham's F12 medium (1:1) (DMEM/F12) media supplemented with 1× Insulin/Transferin/Selenium (ITS, Sigma). Then equal number of cells (1×10^4 cells/well) were seeded on Corning 96-well clear-bottom and dark-wall cell culture plates (VWR, Radnor, Pa.), cultured in ITS-free 10% FBS DMEM/F12 media for 24 hr., and then subjected to the treatments of various compounds or combination of compounds for 6, 24, and 48 hr. Mitochondrial potential in living cells was determined by quantitative analysis of fluorescence intensities using the Mitotracker orange dye as described above. In addition, the above treated cells were also incubated with Hoechst 33342 dye (Invitrogen, Grand Island, N.Y.) to stain cell nuclei according to the Manufacturer's protocol. The fluorescent intensities of stained cell nuclei by Hoechst 33342 dye were also determined by the fluorescence microplate reader. The mitochondrial potential per cell in living cells was obtained by normalizing the fluorescence intensities of Mitotracker orange dye to the fluorescence intensities of Hoechst 33342 dye in each well. Eight samples per each treatment were examined for the above analysis and data are presented as mean±sem of eight samples.

pGSK3b = assay: Western blot, pGSK3b in AML-12 cells; type: cell-based, mouse; conditions: individual compounds, 6 or 24 hr
Protocol: as §2, §3

IMR-32 cells = assay: Cell viability assay, IMR-32; type: cell-based, human; conditions: 24, 48 and 72 hr
Protocol: as §1

HEK293T cells = assay: Fluorescence analysis of mitochondrial potential in HEK293T cells; type: cell-based, human; conditions: for MT potential (Mitotracker Orange fluorescence): 4.5 hr; for MT potential / mitochondrial activity in kidney cells: dose not stated
Protocol: HEK293T cells were cultured in 8-chamber glass slides (1×10^4 cells/chamber) for 24 hours, and then treated with various concentrations of compounds or its respective sulfur analogs (dissolved in sterilized water) for 4.5 hr. These compound-treated cells were rinsed twice with PBS, and incubated with Mitotracker Orange Fluorescence Dye (Invitrogen) at 37° C. for 30 min, and then replaced with fresh PBS according to the Manufacturer's protocol. Then fluorescent signals (mitochondrial potential) in these living cells were recorded using a Zeiss Axio Vert.A1 fluorescence microscope (Thornwood, N.Y.). At least three samples in each treatment group were analyzed under the fluorescent microscope.

Nicastrin = assay: Western blot, Nicastrin in IMR-32 cells; type: cell-based, human; conditions: 150 ppb, 24 hr
Protocol: as §2, §3

[1] = system: rat brain cortex mitochondria; assay: OCR of calcium-stressed rat brain cortex mitochondria (SeaHorse); type: biochemical; conditions: calcium (10 μM) and 150 ppb compound; control 1,677, calcium alone 1,066
Protocol: The following example describes an experiment performed in the SeaHorse external flux analyzer; an instrument for measuring the respiration rate of mitochondria expressed as the oxygen consumption rate, or OCR. The experiment in question used mitochondria from the brain cortex of normal rats, maintained on normal laboratory chow which had not been fortified with any additional selenium sources.
An identical sample of the same mitochondrial preparation was treated in exactly the same manner as the control sample except that calcium (10 micromolar final concentration) was added to stress or damage the mitochondria by depolarizing them. As shown (bottom line) the OCR dropped from a value of 1,677 to 1,066 pMoles/min O2.
Again, identical samples of rat brain cortex mitochondria were incubated as above except that they contained calcium (10 μM) and 150 ppb of compounds D and E, respectively. C was not tested. It is evident that the OCR of the compound-treated, calcium-stressed mitochondria were restored to near control levels, i.e. 1,564 pMoles/min O2 in the case of compound D and 1,531 pMoles/min O2 in the case of compound E.

pTau S396 = assay: Western blot, pTau S396 in IMR-32 cells; type: cell-based, human; conditions: 150 ppb, 24 hr
Protocol: as §2, §4

| Structure (SMILES) | cell viability (C2C12 cells) | increased phosphorylation of Gsk3a (pGSk3a) | pElf2beS539 protein level (pElf2beS539) | ratio of total pTauS396 and pTauS400/T403/S404 to total Tau proteins (Tau) | MT potential (AML-12 cells) | increased phosphorylation of Gsk3b (pGSK3b) | cell viability (OD490 nm) (IMR-32 cells) | MT potential (Mitotracker Orange fluorescence) (HEK293T cells; 37.5 ppb) | MT potential (Mitotracker Orange fluorescence) (HEK293T cells; 75 ppb) | MT potential / mitochondrial activity in kidney cells (HEK293T cells) | Nicastrin protein level (Nicastrin) | OCR (oxygen consumption rate) [1] | MT potential (Mitotracker Orange fluorescence) (HEK293T cells; all tested doses (37.5 and 75 ppb)) | phosphorylation of Tau at S396 (pTau S396) |
| --- | --- | --- | --- | --- | --- | --- | --- | --- | --- | --- | --- | --- | --- | --- |
| C[Se]C[C@H]1O[C@@H](n2cnc3c(N)ncnc32)C(O)C1O (stereo in doubt) [compound C, 5′-Methylselenoadenosine] | did not affect cell viability | did not observed the increased phosphorylation | not affected | significantly attenuated total phosphorylation of Tau protein | did not significantly affect MT potential | did not observed the increased phosphorylation | lack of toxic effects; also recorded: Improved neuronal cell survival | enhanced MT potential | less effects on MT potential | enhanced MT potential | significant reduction | – | – | – |
| Nc1ncnc2c1ncn2[C@@H]1O[C@H](C[Se]CC[C@@H](N)C(=O)O)C(O)C1O (stereo partly shown) [compound D, 5′-Selenoadenosyl homocysteine] | did not affect cell viability | did not observed the increased phosphorylation | not affected | – | did not significantly affect MT potential | did not observed the increased phosphorylation | lack of toxic effects | – | – | ineffective | trend towards reduced Nicastrin protein expression | 1,564 pMoles/min O2 | did not affect MT potential | had no effect on Tau phosphorylation at all tested serine/threonine residues |
| C[Se]CC(NC(=O)CCC(N)C(=O)O)C(=O)O (stereo not shown) [compound E, gamma-glutamyl-methylseleno-cysteine] | – | did not observed the increased phosphorylation | not affected | trend of reduced Tau phosphorylation | did not significantly affect MT potential | did not observed the increased phosphorylation | lack of toxic effects | – | – | – | trend towards reduced Nicastrin protein expression | 1,531 pMoles/min O2 | – | significantly down-regulated |
